Test results: patent EP0943606A1, “BENZENESULFONAMIDE DERIVATIVES AND DRUGS CONTAINING THE SAME” (HOKURIKU SEIYAKU CO., LTD., priority 1996, dated 1998)

Columns and labels:
[1] = biological target: T1, thromboxane A2 / prostaglandin H2 receptor (Cavia porcellus, UniProt A0A286Y4I8); experiment: Thromboxane A2 antagonistic effect (isolated trachea, U-46619 concentration-response curves, Schild); parameters: species or system male Hartley guinea-pigs; details: isolated guinea-pig trachea, contraction by U-46619, test compound treatment 5 minutes, indomethacin 3 × 10^-6M, method of Schild
T1 construct: tracheas were isolated from male Hartley guinea-pigs, and spiral specimens of approximately 2 cm length were prepared; from tissue; host or cells: isolated guinea-pig trachea (spiral strips)
T1 sequence (A0A286Y4I8 1-347): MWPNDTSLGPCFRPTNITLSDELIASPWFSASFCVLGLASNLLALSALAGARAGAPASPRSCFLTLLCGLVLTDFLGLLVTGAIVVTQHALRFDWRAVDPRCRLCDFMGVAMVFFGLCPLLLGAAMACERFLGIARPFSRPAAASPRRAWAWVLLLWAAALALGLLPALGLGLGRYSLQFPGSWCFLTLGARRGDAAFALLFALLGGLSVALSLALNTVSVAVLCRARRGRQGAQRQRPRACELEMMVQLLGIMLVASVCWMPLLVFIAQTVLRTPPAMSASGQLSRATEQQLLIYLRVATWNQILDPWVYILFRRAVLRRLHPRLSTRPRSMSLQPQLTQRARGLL
Procedure: According to an ordinary method, tracheas were isolated from male Hartley guinea-pigs, and spiral specimens of approximately 2 cm length were prepared. These specimens were suspended in organ baths that contained Krebs-Henseleit solution at 37°C under a resting tension of 1.5 g, and the changes in isometric tension were recorded. The first concentration-response curves were obtained by cumulative applications of 1 × 10^-9 to 3 × 10^-7M of U-46619 (Cayman, thromboxane A2 / prostaglandin H2 receptor agonist) in the organ baths. After treatments with test compounds at adequate concentrations for 5 minutes, the second concentration-response curves were obtained in the same manner as the first applications. pKB values were calculated using these two concentration-response curves according to the method of Schild [Pharmacological Review, Vol. 9, 242 (1957)]. Indomethacin (3 × 10^-6M, Sigma) was added beforehand to the organ bath to eliminate possible affections by thromboxane A2 and prostaglandin produced endogenously [Japan J. Pharmacol., Vol. 60, 227 (1992)].

[2] = tested on: bronchoconstriction induced by U-46619; experiment: Inhibitory effect on bronchoconstriction induced by U-46619 (Konzett-Roessler); type: in vivo, Male Hartley guinea-pigs; details: Cavia porcellus; 0.3 mg/kg orally, 2 hours before U-46619 (4 µg/kg, cervical vein), anesthetized guinea-pigs, compared to control group; read-out: Inhibition rate (%)
Procedure: Airway resistance was evaluated according to the method of Konzett-Roessler [Naunyn-Schmiedberg's Arch. Exp. Path. Pharmak., Vol. 195, 71 (1940)]. Male Hartley guinea-pigs (about 400g wt.) were anesthetized with urethane (1.5g/kg, i.p.) and ventilated by an artificial respirator (Model 683; Harvard). At the same time, overflowed air volume above the pressure of about 12cm H2O was measured by using a sensor (Model 7020; Ugo Basile) and the value was used as an index of bronchoconstriction. 0.3 mg/kg (5 ml/kg) of test compounds suspended in 5% gum Arabic was administered orally to the guinea-pigs fasted beforehand for 24 hours. After 2 hours, U-46619 (4 µg/kg; Cayman) was administered through the cervical vein, and then maximal response was measured. Inhibitory rates compared to the control group were calculated based on the response rate normalized by the complete closure as 100%. […]

leukotriene D4 = biological target: T2, leukotriene D4 (Cavia porcellus, UniProt Q2NNR5); experiment: Leukotriene D4 antagonistic effect (isolated trachea, leukotriene D4 concentration-response curves, Schild); parameters: species or system male Hartley guinea-pigs; details: isolated guinea-pig trachea, contraction by leukotriene D4, test compound treatment 30 minutes, indomethacin 1 × 10^-6M, method of Schild
T2 construct: tracheas were isolated from male Hartley guinea-pigs, and spiral specimens of approximately 2 cm length were prepared; from tissue; host or cells: isolated guinea-pig trachea (spiral strips)
T2 sequence (Q2NNR5 1-340): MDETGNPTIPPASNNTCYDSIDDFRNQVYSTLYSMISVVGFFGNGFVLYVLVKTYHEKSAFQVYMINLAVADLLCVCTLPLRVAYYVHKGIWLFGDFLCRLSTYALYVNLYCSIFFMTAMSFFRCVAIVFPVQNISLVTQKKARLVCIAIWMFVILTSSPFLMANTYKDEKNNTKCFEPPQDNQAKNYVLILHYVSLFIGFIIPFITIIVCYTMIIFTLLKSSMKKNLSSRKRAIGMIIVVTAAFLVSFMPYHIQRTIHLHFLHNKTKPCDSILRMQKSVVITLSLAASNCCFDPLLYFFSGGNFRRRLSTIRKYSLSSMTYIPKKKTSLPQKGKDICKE
Procedure: According to an ordinary method, tracheas were isolated from male Hartley guinea-pigs, and spiral specimens of approximately 2 cm length were prepared. These specimens were suspended isotonically in organ baths that contained Krebs-Henseleit solution at 37°C under a resting tension of 0.5g. After contractions with acetylcholine (1 × 10^-5M; Ovisot for injection, Daiichi Seiyaku), and the first concentration-response curves were obtained by cumulative applications of 10^-10 to 10^-8M of leukotriene D4 (ULTRA FINE) in the organ baths. After treatments with test compounds at adequate concentrations for 30 minutes, the second concentration-response curves were obtained in the same manner as the first applications. pKB values were calculated using these two concentration-response curves according to the method of Schild [Pharmacological Review, Vol. 9, 242 (1957)]. Indomethacin (1 × 10^-6M, Sigma) was added beforehand to the organ bath to eliminate possible affections by thromboxane A2 and prostaglandin produced by stimulus of leukotriene D4 [Japan J. Pharmacol., Vol. 60, 227 (1992)]. […]

[3] = tested on: bronchoconstriction induced by leukotriene D4; experiment: Inhibitory effect on bronchoconstriction induced by leukotriene D4 (Konzett-Roessler); type: in vivo, Male Hartley guinea-pigs; details: Cavia porcellus; oral administration 2 hours before leukotriene D4 (1 µg/kg, cervical vein), anesthetized guinea-pigs, indomethacin and propranolol pretreated
Procedure: Airway resistance was evaluated according to the method of Konzett-Roessler [Naunyn-Schmiedberg's Arch. Exp. Path. Pharmak., Vol. 195, 71 (1940)]. Male Hartley guinea-pigs fasted beforehand for 24 hours were anesthetized with urethane, and then overflowed air volume was measured under artificial ventilation as an index of bronchoconstriction. Various doses of test compounds suspended in 5% gum Arabic were administered orally, and after 2 hours, leukotriene D4 (1 µg/kg; ULTRA FINE) was administered through the cervical vein. Then, values at 2 minutes were measured when maximum responses were obtained. Inhibitory rates compared to the control group were calculated based on the response rate normalized by the overflowed volume at complete closure as 100% bronchoconstriction rate, and the 50% inhibitory doses (ED50 values) were calculated using dose-inhibitory rate curves. Indomethacin (2mg/kg, i.v.) and propranolol (1mg/kg, i.v.) were administered at 10 minutes and 5 minutes before the administration of leukotriene D4, respectively. […]

human liver microsomes = experiment: In vitro metabolism test; type: in vitro ADME; details: 0.4mg protein/ml human liver microsomes, 0.02 mM test compound, NADPH-generating system, 37°C for 30 minutes, HPLC
Procedure: 0.05 mM EDTA-0.1M phosphate buffer (pH 7.4), distilled water, 0.4mg protein/ml human liver microsomes and 0.02 mM test compound were mixed in a test tube under ice-cooling. After the mixture was shaken at 37°C for 2 minutes beforehand, the mixture was added with a ready-mix of NADPH-generating system and then shaken at 37°C for 30 minutes. After the incubation, the reaction was stopped by cooling with ice. The mixture was added with acetonitrile and well mixted, and then centrifuged at 3000 rpm for 10 minutes. The resulting supernatant was subjected to HPLC measurement, and the residual rate of test compound was calculated from the ratio of a peak area of an unchanged compound in the reaction sample in comparison with a non-reaction mixture. Preparations of reagents and reaction mixtures were carried out by referring to Shin Seikagaku Koza, Vol. 5: Biological oxidation and drug metabolism edited by The Japanese Biochemical Society. […]

Structure (SMILES)	Kb [1] [nM]	Kb (leukotriene D4) [nM]	Residual rate (%) (human liver microsomes)	inhibition in vivo at 0.3 mg/kg [2] [%]	ED50 [3] [mg/kg]
O=C(O)CCCc1ccc(C(CCCC(F)(F)C(F)(F)F)NS(=O)(=O)c2ccc(Cl)cc2)s1 (centres unmarked) [Example 162, 4-[5-[1-(4-Chlorophenylsulfonylamino)-5,5,6,6,6-pentafluorohexyl]-2-thienyl]butyric Acid]	0.398	251	72	85	1.3
O=C(O)CCCc1ccc(C(CCCC(F)(F)C(F)(F)F)NS(=O)(=O)c2ccc(F)cc2)s1 (centres unmarked) [Example 163, 4-[5-[5,5,6,6,6-Pentafluoro-1-(4-fluorophenylsulfonylamino)hexyl]-2-thienyl]butyric Acid]	0.794	398	87	92	0.78
CCCCCC(NS(=O)(=O)c1ccc(Cl)cc1)c1ccc(CCCC(=O)O)cc1 (centres unmarked) [Reference compound 1, 4-[4-[1-(4-Chlorophenylsulfonylamino)hexyl]phenyl]butyric acid, reference compound]	1	200	53	85	8.1
O=C(O)CCCc1ccc(C(CCC(F)(F)C(F)(F)C(F)(F)C(F)(F)F)NS(=O)(=O)c2ccc(F)cc2)s1 (centres unmarked) [Example 179, 4-[5-[4,4,5,5,6,6,7,7,7-Nonafluoro-1-(4-fluorophenylsulfonylamino)heptyl]-2-thienyl]butyric Acid]	7.94	100	78	93	0.17
CC(C)CCCC(NS(=O)(=O)c1ccc(Cl)cc1)c1ccc(CCCC(=O)O)cc1 (centres unmarked) [Reference compound 2, 4-[4-[1-(4-chlorophenylsulfonylamino)-5-methylhexyl]phenyl]butyric acid, reference compound]	1.26	251	50	81	9.2
O=C(O)CCCc1ccc(C(CCCC(F)(C(F)(F)F)C(F)(F)F)NS(=O)(=O)c2ccc(F)cc2)s1 (centres unmarked) [Example 183, 4-[5-[5,6,6.6-Tetrafluoro-5-trifluoromethyl-1-(4-fluorophenylsulfonylamino)hexyl]-2-thienyl]butyric Acid]	2	398	78	89	1.1
O=C(O)CCCc1ccc(C(CCCC(F)(F)C(F)(F)C(F)(F)F)NS(=O)(=O)c2ccc(Cl)cc2)s1 (centres unmarked) [Example 177, 4-[5-[1-(4-Chlorophenylsulfonylamino)-5,5,6,6,7,7,7-heptafluoroheptyl]-2-thienyl]butyric Acid]	6.31	398	87	93	0.69
O=C(O)CCCc1ccc(C(CCCC(F)(F)C(F)(F)C(F)(F)F)NS(=O)(=O)c2ccc(F)cc2)s1 (centres unmarked) [Example 178, 4-[5-[5,5,6,6,7,7,7-Heptafluoro-1-(4-fluorophenylsulfonylamino)heptyl]-2-thienyl]butyric Acid]	3.16	398	84	89	0.67

Further lines, with some results ahead:

Kb [1] [nM]	Kb (leukotriene D4) [nM]	Residual rate (%) (human liver microsomes)	Structure (SMILES)	inhibition in vivo at 0.3 mg/kg [2] [%]	ED50 [3] [mg/kg]
3.16	126	86	O=C(O)CCCc1ccc(C(CCC(F)(F)C(F)(F)C(F)(F)F)NS(=O)(=O)c2ccc(F)cc2)s1 (centres unmarked) [Example 176, 4-[5-[4,4,5,5,6,6,6-Heptafluoro-1-(4-fluorophenylsulfonylamino)hexyl]-2-thienyl]butyric Acid]	78	0.14
12.6	794	93	O=C(O)CCCc1ccc(C(CCCC(F)(F)C(F)(F)C(F)(F)F)NS(=O)(=O)c2ccc(F)cc2)cc1 (centres unmarked) [Example 202, 4-[4-[5,5,6,6,7,7,7-Heptafluoro-1-(4-fluorophenylsulfonylamino)heptyl]phenyl]butyric Acid]	85	0.97
2.51	251	88	O=C(O)CCCc1ccc(C(CCCC(F)(F)C(F)(F)F)NS(=O)(=O)c2ccc(F)cc2)cc1 (centres unmarked) [Example 189, 4-[4-[5,5,6,6,6-Pentafluoro-1-(4-fluorophenylsulfonylamino)hexyl]phenyl]butyric Acid]	71	0.92
10	251	83	O=C(O)CCCc1ccc(C(CCC(F)(F)C(F)(F)C(F)(F)F)NS(=O)(=O)c2ccc(F)cc2)cc1 (centres unmarked) [Example 200, 4-[4-[4,4,5,5,6,6,6-Heptafluoro-1-(4-fluorophenylsulfonylamino)hexyl]phenyl]butyric Acid]	82	0.21
0.794	200	74	O=C(O)CCCc1ccc(C(CCCC(F)(F)C(F)(F)F)NS(=O)(=O)c2ccc(Cl)cc2)cc1 (centres unmarked) [Example 188, 4-[4-[1-(4-Chlorophenylsulfonylamino)-5,5,6,6,6-pentafluorohexyl]phenyl]butyric Acid]	88	1.6
